# Measurements as given in US20240238423A9, “TETRAHYDROISOQUINOLINE HETEROBIFUNCTIONAL BCL-XL DEGRADERS” (Treeline Biosciences, Inc., priority 2022, published 2024).
# Where two headings read alike, the source gives them in different places.
# Target: T1, Human BCL-XL protein (N-terminal HiBiT tagged BCL-XL in HT1080 cells) (Homo sapiens, UniProt Q07817)
# T1 construct: expressed in transfected cells; host or cells: HT-1080 (ATCC CCL-121), stably transduced with lentivirus pLV-UBC-N-HiBiT-BCL-XL-PGK-puro and selected with puromycin
# T1 sequence (Q07817 whole entry): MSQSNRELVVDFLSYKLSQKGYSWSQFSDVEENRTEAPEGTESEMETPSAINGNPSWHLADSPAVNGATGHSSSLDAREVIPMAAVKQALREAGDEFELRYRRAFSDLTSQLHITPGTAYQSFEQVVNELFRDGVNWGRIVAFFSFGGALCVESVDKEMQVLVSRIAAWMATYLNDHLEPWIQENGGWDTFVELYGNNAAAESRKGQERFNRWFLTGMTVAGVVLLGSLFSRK
# Experiment: HiBiT based degradation assay
# Type: cell-based
# Details: HT1080 cells expressing HiBiT-BCL-XL; for Ymin (6 h) / Ymin (24 h): BCL-XL degradation normalized with DMSO control; for DC50: BCL-XL degradation
# Procedure, shortened: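 HT1080 cells stably transduced by lentivirus with N-terminally HiBiT-tagged human BCL-XL and kept under 1 μg/mL puromycin selection were seeded at three thousand cells per well in 40 μL RPMI 1640 into 384-well plates pre-spotted with compounds across a concentration range. Luminescence was read on a PHERAstar FSX, normalized to DMSO, and fitted with a four-parameter logistic model.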
Structure (SMILES),Ymin (6 h),Ymin (24 h),"DC50 (6 h, read-out: EC50 (6 h)) [nM]","DC50 (24 h, read-out: EC50 (24 h)) [nM]"
"Cc1c(O[C@@H](C)CCC2CCN(CC(=O)Nc3cccc4c(C5CCC(=O)NC5=O)nn(C)c34)CC2)cccc1-c1ccc(N2CCc3cccc(C(=O)Nc4nc5ccccc5s4)c3C2)nc1C(=O)O (stereo partly drawn) [Compound 169a, 6-[8-(1,3-benzothiazol-2-ylcarbamoyl)-3,4-dihydro-1H-isoquinolin-2-yl]-3-[3-[(1S)-3-[1-[2-[[3-(2,6-dioxo-3-piperidyl)-1-methyl-indazol-7-yl]amino]-2-oxo-ethyl]-4-piperidyl]-1-methyl-propoxy]-2-methyl-phenyl]pyridine-2-carboxylic acid]",B (50% ≤ Ymin < 70%),B (50% ≤ Ymin < 70%),100 to 1000,< 100
"Cc1c(O[C@H](C)CCC2CCN(CC(=O)Nc3cccc4c(C5CCC(=O)NC5=O)nn(C)c34)CC2)cccc1-c1ccc(N2CCc3cccc(C(=O)Nc4nc5ccccc5s4)c3C2)nc1C(=O)O (stereo partly drawn) [Compound 169b, 6-[8-(1,3-benzothiazol-2-ylcarbamoyl)-3,4-dihydro-1H-isoquinolin-2-yl]-3-[3-[(1R)-3-[1-[2-[[3-(2,6-dioxo-3-piperidyl)-1-methyl-indazol-7-yl]amino]-2-oxo-ethyl]-4-piperidyl]-1-methyl-propoxy]-2-methyl-phenyl] pyridine-2-carboxylic acid]",C (Ymin ≥ 70%),B (50% ≤ Ymin < 70%),< 100,< 100
"Cc1c(OCC(F)(F)CC2CCN(CC(=O)Nc3cccc4c(C5CCC(=O)NC5=O)nn(C)c34)CC2)cccc1-c1ccc(N2CCc3cccc(C(=O)Nc4nc5ccccc5s4)c3C2)nc1C(=O)O (stereo not drawn) [Compound 170, 6-[8-(1,3-benzothiazol-2-ylcarbamoyl)-3,4-dihydro-1H-isoquinolin-2-yl]-3-[3-[3-[1-[2-[[3-(2,6-dioxo-3-piperidyl)-1-methyl-indazol-7-yl]amino]-2-oxo-ethyl]-4-piperidyl]-2,2-difluoro-propoxy]-2-methyl-phenyl]pyridine-2-carboxylic acid]",–,B (50% ≤ Ymin < 70%),–,100 to 1000
"Cc1c(OCC[C@H](C)C2CCN(CC(=O)Nc3cccc4c(C5CCC(=O)NC5=O)nn(C)c34)CC2)cccc1-c1ccc(N2CCc3cccc(C(=O)Nc4nc5ccccc5s4)c3C2)nc1C(=O)O (stereo partly drawn) [Compound 173a, 6-(8-(benzo[d]thiazol-2-ylcarbamoyl)-3,4-dihydroisoquinolin-2(1H)-yl)-3-(3-((3S)-3-(1-(2-((3-(2,6-dioxopiperidin-3-yl)-1-methyl-1H-indazol-7-yl)amino)-2-oxoethyl)piperidin-4-yl)butoxy)-2-methylphenyl)picolinic acid]",–,B (50% ≤ Ymin < 70%),–,< 100
"Cc1c(OCC[C@@H](C)C2CCN(CC(=O)Nc3cccc4c(C5CCC(=O)NC5=O)nn(C)c34)CC2)cccc1-c1ccc(N2CCc3cccc(C(=O)Nc4nc5ccccc5s4)c3C2)nc1C(=O)O (stereo partly drawn) [Compound 173b, 6-[8-(1,3-benzothiazol-2-ylcarbamoyl)-3,4-dihydro-1H-isoquinolin-2-yl]-3-[3-[(3R)-3-[1-[2-[[3-(2,6-dioxo-3-piperidyl)-1-methyl-indazol-7-yl]amino]-2-oxo-ethyl]-4-piperidyl]butoxy]-2-methyl-phenyl]pyridine-2-carboxylic acid]",–,B (50% ≤ Ymin < 70%),–,100 to 1000
"Cc1c(OCCO[C@H]2C[C@H]3CC[C@@H](C2)N3CC(=O)Nc2ccc3c(C4CCC(=O)NC4=O)nn(C)c3c2)cccc1-c1ccc(N2CCc3cccc(C(=O)Nc4nc5ccccc5s4)c3C2)nc1C(=O)O (stereo partly drawn) [Compound 174a, 6-(8-(benzo[d]thiazol-2-ylcarbamoyl)-3,4-dihydroisoquinolin-2(1H)-yl)-3-(3-(2-(((1R,3r,5S)-8-(2-((3-(2,6-dioxopiperidin-3-yl)-1-methyl-1H-indazol-6-yl)amino)-2-oxoethyl)-8-azabicyclo[3.2.1]octan-3-yl)oxy)ethoxy)-2-methylphenyl)picolinic acid]",–,A (Ymin < 50%),–,< 100
"Cc1c(OCCO[C@@H]2C[C@H]3CC[C@@H](C2)N3CC(=O)Nc2ccc3c(C4CCC(=O)NC4=O)nn(C)c3c2)cccc1-c1ccc(N2CCc3cccc(C(=O)Nc4nc5ccccc5s4)c3C2)nc1C(=O)O (stereo partly drawn) [Compound 174b, 6-(8-(benzo[d]thiazol-2-ylcarbamoyl)-3,4-dihydroisoquinolin-2(1H)-yl)-3-(3-(2-(((1R,3s,5S)-8-(2-((3-(2,6-dioxopiperidin-3-yl)-1-methyl-1H-indazol-6-yl)amino)-2-oxoethyl)-8-azabicyclo[3.2.1]octan-3-yl)oxy)ethoxy)-2-methylphenyl)picolinic acid]",C (Ymin ≥ 70%),B (50% ≤ Ymin < 70%),100 to 1000,< 100

# Second part, the compound after the results:
Ymin (6 h),Ymin (24 h),"DC50 (6 h, read-out: EC50 (6 h)) [nM]","DC50 (24 h, read-out: EC50 (24 h)) [nM]",Structure (SMILES)
–,B (50% ≤ Ymin < 70%),–,100 to 1000,"Cc1c(O[C@H]2CC[C@H](CC(F)(F)C(=O)N3CCN(c4cccc5c(C6CCC(=O)NC6=O)nn(C)c45)CC3)CC2)cccc1-c1ccc(N2CCc3cccc(C(=O)Nc4nc5ccccc5s4)c3C2)nc1C(=O)O (stereo partly drawn) [Compound 171a, 6-(8-(benzo[d]thiazol-2-ylcarbamoyl)-3,4-dihydroisoquinolin-2(1H)-yl)-3-(3-(((1r,4r)-4-(3-(4-(3-(2,6-dioxopiperidin-3-yl)-1-methyl-1H-indazol-7-yl)piperazin-1-yl)-2,2-difluoro-3-oxopropyl)cyclohexyl)oxy)-2-methylphenyl)picolinic acid]"
C (Ymin ≥ 70%),A (Ymin < 50%),100 to 1000,< 100,"Cc1c(OCCCC2CCN(CCCOc3ccc4c(C5CCC(=O)NC5=O)nn(C)c4c3)CC2)cccc1-c1ccc(N2CCc3cccc(C(=O)Nc4nc5ccccc5s4)c3C2)nc1C(=O)O (stereo not drawn) [Compound 172, 6-(8-(benzo[d]thiazol-2-ylcarbamoyl)-3,4-dihydroisoquinolin-2(1H)-yl)-3-(3-(3-(1-(3-((3-(2,6-dioxopiperidin-3-yl)-1-methyl-1H-indazol-6-yl)oxy)propyl)piperidin-4-yl)propoxy)-2-methylphenyl)picolinic acid]"
–,B (50% ≤ Ymin < 70%),–,< 100,"Cc1c(Oc2ccc(CCCCN3CCN(c4cccc5c(C6CCC(=O)NC6=O)nn(C)c45)CC3)cc2)cccc1-c1ccc(N2CCc3cccc(C(=O)Nc4nc5ccccc5s4)c3C2)nc1C(=O)O (stereo not drawn) [Compound 175, 6-(8-(benzo[d]thiazol-2-ylcarbamoyl)-3,4-dihydroisoquinolin-2(1H)-yl)-3-(3-(4-(4-(4-(3-(2,6-dioxopiperidin-3-yl)-1-methyl-1H-indazol-7-yl)piperazin-1-yl)butyl)phenoxy)-2-methylphenyl)picolinic acid]"
–,B (50% ≤ Ymin < 70%),–,< 100,"Cc1c(O[C@H]2CC[C@H](CC(=O)N3CCN(c4ccc5c(C6CCC(=O)NC6=O)nn(C)c5c4)CC3)CC2)cccc1-c1ccc(N2CCc3cccc(C(=O)Nc4nc5ccccc5s4)c3C2)nc1C(=O)O (stereo partly drawn) [Compound 176a, 6-(8-(benzo[d]thiazol-2-ylcarbamoyl)-3,4-dihydroisoquinolin-2(1H)-yl)-3-(3-(((1r,4r)-4-(2-(4-(3-(2,6-dioxopiperidin-3-yl)-1-methyl-1H-indazol-6-yl)piperazin-1-yl)-2-oxoethyl)cyclohexyl)oxy)-2-methylphenyl)picolinic acid]"
–,B (50% ≤ Ymin < 70%),–,100 to 1000,"Cc1c(OCC(F)(F)CN2C[C@@H](C)N(CC(=O)Nc3ccc4c(C5CCC(=O)NC5=O)nn(C)c4c3)[C@@H](C)C2)cccc1-c1ccc(N2CCc3cccc(C(=O)Nc4nc5ccccc5s4)c3C2)nc1C(=O)O (stereo partly drawn) [Compound 177a, 6-[8-(1,3-benzothiazol-2-ylcarbamoyl)-3,4-dihydro-1H-isoquinolin-2-yl]-3-[3-[3-[(3R,5S)-4-[2-[[3-(2,6-dioxo-3-piperidyl)-1-methyl-indazol-6-yl]amino]-2-oxo-ethyl]-3,5-dimethyl-piperazin-1-yl]-2,2-difluoro-propoxy]-2-methyl-phenyl]pyridine-2-carboxylic acid]"
–,B (50% ≤ Ymin < 70%),–,< 100,"Cc1c(Oc2ccc(CCCC(=O)N3CCN(c4ccc5c(C6CCC(=O)NC6=O)nn(C)c5c4)CC3)cc2)cccc1-c1ccc(N2CCc3cccc(C(=O)Nc4nc5ccccc5s4)c3C2)nc1C(=O)O (stereo not drawn) [Compound 178, 6-(8-(benzo[d]thiazol-2-ylcarbamoyl)-3,4-dihydroisoquinolin-2(1H)-yl)-3-(3-(4-(4-(4-(3-(2,6-dioxopiperidin-3-yl)-1-methyl-1H-indazol-6-yl)piperazin-1-yl)-4-oxobutyl)phenoxy)-2-methylphenyl)picolinic acid]"
–,A (Ymin < 50%),–,< 100,"Cc1c(OCC(F)(F)CN2C[C@@H](C)N(CC(=O)N3CCN(c4cccc5c(C6CCC(=O)NC6=O)nn(C)c45)CC3)[C@@H](C)C2)cccc1-c1ccc(N2CCc3cccc(C(=O)Nc4nc5ccccc5s4)c3C2)nc1C(=O)O (stereo partly drawn) [Compound 179a, 6-[8-(1,3-benzothiazol-2-ylcarbamoyl)-3,4-dihydro-1H-isoquinolin-2-yl]-3-[3-[3-[(3R,5S)-4-[2-[4-[3-(2,6-dioxo-3-piperidyl)-1-methyl-indazol-7-yl]piperazin-1-yl]-2-oxo-ethyl]-3,5-dimethyl-piperazin-1-yl]-2,2-difluoro-propoxy]-2-methyl-phenyl]pyridine-2-carboxylic acid]"
